According to patent US20230227546A1, “TYPE 2 CYTOKINES AS PREDICTORS OF DISEASE SEVERITY AND/OR AS T[…] FOR COVID-19” (priority 2020, published 2023):

Test system: COVID-19
Format: in vivo, human

Dupilumab: anti-human IL4Rα monoclonal antibody that blocks IL-13 and IL-4 signaling; sold as DUPIXENT
Deceased (number of patients) With Concurrent Dupilumab (31 patients): 0
Ventilated (number of patients) With Concurrent Dupilumab (31 patients): 0
Hospitalized (number of patients) With Concurrent Dupilumab (31 patients, values less than 20 suppressed): <20
Odds Ratio, Hospitalized (Dupilumab vs matched controls 1:5, conditional logistic regression): 0.64
rate of death (compared to matched controls): lower rate
rate of hospitalization (compared to matched controls): lower rate
rate of ventilation (compared to matched controls): lower rate
